Reference: patent US20260183275A1, “SUBSTITUTED QUINOLONE COMPOUNDS USEFUL AS INHIBITORS OF TLR9” (Bristol-Myers Squibb Company, priority 2022, published 2026)

Legend:
Type in all cases: cell-based
human TLR9 = biological target: T1, human TLR9 (Homo sapiens, UniProt Q9NR96); assay: TLR9 inhibition reporter assay (HEK-Blue cells, SEAP reporter); details: HEK-Blue cells overexpressing human TLR9; stimulated with ODN2006 5 nM; SEAP read after 22 hour; dose range 0.05 nM-50 μM
T1 construct: host or cells: HEK-Blue cells
T1 sequence (Q9NR96 26-1032): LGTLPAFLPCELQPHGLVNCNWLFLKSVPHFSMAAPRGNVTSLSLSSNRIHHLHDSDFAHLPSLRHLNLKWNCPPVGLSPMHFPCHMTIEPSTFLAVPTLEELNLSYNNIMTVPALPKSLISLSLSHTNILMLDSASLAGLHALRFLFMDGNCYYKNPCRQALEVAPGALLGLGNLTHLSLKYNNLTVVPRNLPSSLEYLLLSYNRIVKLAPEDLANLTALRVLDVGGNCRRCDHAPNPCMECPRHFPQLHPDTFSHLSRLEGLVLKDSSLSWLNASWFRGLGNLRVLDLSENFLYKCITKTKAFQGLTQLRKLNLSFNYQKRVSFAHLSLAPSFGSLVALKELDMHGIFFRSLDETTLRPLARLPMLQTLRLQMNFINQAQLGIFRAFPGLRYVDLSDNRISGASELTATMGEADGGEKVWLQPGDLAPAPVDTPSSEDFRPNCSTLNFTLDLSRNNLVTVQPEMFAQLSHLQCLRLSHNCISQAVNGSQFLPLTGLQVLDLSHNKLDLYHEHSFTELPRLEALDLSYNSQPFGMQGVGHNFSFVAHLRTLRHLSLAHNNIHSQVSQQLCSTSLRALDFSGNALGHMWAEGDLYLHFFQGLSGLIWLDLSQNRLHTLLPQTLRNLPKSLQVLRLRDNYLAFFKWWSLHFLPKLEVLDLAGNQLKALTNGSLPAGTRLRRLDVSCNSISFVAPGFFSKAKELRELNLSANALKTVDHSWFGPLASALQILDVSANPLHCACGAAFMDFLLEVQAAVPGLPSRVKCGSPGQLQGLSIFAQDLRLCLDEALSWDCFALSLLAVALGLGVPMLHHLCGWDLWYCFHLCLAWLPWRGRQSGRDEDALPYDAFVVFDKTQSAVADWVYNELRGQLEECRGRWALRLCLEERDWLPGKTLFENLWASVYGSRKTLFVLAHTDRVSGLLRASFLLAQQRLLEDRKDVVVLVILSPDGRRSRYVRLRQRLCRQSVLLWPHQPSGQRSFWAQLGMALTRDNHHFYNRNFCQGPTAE
Outline: (§1)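 HEK-Blue cells with NF-κB/AP-1-driven SEAP pre-treated 30 min with compounds (0.05 nM-50 μM), then stimulated with gardiquimod 7.5 μM (TLR7), R848 15.9 μM (TLR8) or ODN2006 5 nM (TLR9). SEAP read after 22 h at 37° C; % inhibition relative to agonist+DMSO and reference-inhibitor wells.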

human TLR7 = biological target: T2, human TLR7 (Homo sapiens, UniProt Q9NYK1); assay: TLR7 inhibition reporter assay (HEK-Blue cells, SEAP reporter); details: HEK-Blue cells overexpressing human TLR7; stimulated with gardiquimod 7.5 μM; SEAP read after 22 hour; dose range 0.05 nM-50 μM
T2 construct: host or cells: HEK-Blue cells
T2 sequence (Q9NYK1 27-1049): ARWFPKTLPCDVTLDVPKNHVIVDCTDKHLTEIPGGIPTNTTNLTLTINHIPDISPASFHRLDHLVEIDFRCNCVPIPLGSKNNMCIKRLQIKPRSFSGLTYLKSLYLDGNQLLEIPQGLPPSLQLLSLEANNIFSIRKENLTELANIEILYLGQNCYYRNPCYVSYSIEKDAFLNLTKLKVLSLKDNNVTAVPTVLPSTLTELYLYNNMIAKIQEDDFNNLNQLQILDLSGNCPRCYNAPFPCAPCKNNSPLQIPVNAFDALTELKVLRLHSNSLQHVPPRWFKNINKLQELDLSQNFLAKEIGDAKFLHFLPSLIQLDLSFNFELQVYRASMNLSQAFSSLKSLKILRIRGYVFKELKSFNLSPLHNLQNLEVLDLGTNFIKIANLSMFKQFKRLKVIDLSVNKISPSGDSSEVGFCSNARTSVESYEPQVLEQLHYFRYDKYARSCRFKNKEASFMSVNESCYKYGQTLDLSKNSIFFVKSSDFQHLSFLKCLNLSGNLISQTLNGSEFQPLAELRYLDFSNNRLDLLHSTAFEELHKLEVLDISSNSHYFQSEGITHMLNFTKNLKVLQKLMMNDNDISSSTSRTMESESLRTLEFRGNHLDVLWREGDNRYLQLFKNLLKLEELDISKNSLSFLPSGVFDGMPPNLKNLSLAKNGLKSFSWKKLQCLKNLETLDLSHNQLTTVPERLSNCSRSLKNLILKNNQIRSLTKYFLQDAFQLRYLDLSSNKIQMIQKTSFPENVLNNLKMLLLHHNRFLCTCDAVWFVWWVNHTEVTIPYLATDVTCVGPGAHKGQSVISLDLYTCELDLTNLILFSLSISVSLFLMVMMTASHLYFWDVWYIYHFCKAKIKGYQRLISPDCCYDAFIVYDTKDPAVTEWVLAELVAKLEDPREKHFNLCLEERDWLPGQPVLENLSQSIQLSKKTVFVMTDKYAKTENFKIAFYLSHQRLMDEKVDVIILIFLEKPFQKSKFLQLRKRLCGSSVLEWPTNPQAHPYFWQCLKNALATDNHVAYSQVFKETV
Outline: as §1

human TLR8 = biological target: T3, human TLR8 (Homo sapiens, UniProt Q9NR97); assay: TLR8 inhibition reporter assay (HEK-Blue cells, SEAP reporter); details: HEK-Blue cells overexpressing human TLR8; stimulated with R848 15.9 μM; SEAP read after 22 hour; dose range 0.05 nM-50 μM
T3 construct: host or cells: HEK-Blue cells
T3 sequence (Q9NR97 27-1041): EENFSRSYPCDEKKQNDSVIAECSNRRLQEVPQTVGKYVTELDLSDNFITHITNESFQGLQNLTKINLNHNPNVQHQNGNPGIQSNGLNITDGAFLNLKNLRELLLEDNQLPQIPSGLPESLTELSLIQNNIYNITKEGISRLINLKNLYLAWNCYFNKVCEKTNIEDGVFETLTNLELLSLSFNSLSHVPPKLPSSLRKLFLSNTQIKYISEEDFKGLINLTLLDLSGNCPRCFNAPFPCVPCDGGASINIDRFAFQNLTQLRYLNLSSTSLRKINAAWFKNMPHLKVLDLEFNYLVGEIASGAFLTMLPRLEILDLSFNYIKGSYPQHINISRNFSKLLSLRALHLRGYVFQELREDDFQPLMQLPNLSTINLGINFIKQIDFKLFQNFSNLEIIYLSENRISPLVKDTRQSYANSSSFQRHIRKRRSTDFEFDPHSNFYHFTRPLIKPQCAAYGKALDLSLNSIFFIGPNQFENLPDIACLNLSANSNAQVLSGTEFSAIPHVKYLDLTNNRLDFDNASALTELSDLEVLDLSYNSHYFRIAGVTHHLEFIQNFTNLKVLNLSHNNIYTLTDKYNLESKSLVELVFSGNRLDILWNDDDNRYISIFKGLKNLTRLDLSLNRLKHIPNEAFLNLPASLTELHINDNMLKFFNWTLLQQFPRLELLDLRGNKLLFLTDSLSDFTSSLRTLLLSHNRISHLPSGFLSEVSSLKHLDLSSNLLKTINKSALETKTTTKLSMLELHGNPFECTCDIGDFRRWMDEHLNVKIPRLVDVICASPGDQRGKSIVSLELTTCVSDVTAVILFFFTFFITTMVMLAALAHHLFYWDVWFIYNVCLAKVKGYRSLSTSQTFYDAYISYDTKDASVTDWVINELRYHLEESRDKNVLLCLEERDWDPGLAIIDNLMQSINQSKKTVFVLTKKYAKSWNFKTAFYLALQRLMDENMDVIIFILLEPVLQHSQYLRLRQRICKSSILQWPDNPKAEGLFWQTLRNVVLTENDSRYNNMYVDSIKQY
Outline: as §1

IC50 (human TLR9) | IC50 (human TLR7) | IC50 (human TLR8) | SMILES
2270 nM | ≥ 50000 nM | 1900 nM | Cn1c(=O)c(-c2ccccc2)cc2cc(-c3ccc(C4CCN(C5COC5)CC4)cc3)ccc21 [Example 100, 1-methyl-6-{4-[1-(oxetan-3-yl)piperidin-4-yl]phenyl}-3-phenyl-1,2-dihydroquinolin-2-one]
2370 nM | ≥ 50000 nM | 1340 nM | CCc1c(-c2ccc(S(C)(=O)=O)cc2)c(=O)n(C)c2ccc(-c3ccc(C4CCN(C5COC5)CC4)cc3)cc12 [Example 101, 4-ethyl-3-(4-methanesulfonylphenyl)-1-methyl-6-{4-[1-(oxetan-3-yl)piperidin-4-yl]phenyl}-1,2-dihydroquinolin-2-one]
